The results in this text go back to ChEMBL document CHEMBL4613308, “Screen of Unfocused Libraries Identified Compounds with Direct or Synergistic Antibacterial Activity” (ACS Med Chem Lett, 2020).

In brackets after ≈: the same amount, converted by molar mass. Bounds are passed on as bounds.

Experiment [1] concerns Acinetobacter baumannii. As to the kind of experiment: Synergistic antibacterial activity against Acinetobacter baumannii ATCC 17978 in presence of 0.5 times MIC of colistin by microdilution broth method. Format: functional. (In general: Broth dilution looks for growth in wells or tubes with falling amounts of substance.)
Experiment [2] has as its system Acinetobacter baumannii. Nature of the experiment: Synergistic antibacterial activity against multidrug-resistant Acinetobacter baumannii N50 in presence of 2 ug/ml colistin by microdilution broth method. Format: functional.
The next experiment concerns HeLa. Nature of the experiment: Cytotoxicity against human HeLa cells assessed as reduction in cell viability assay by CellTox-Green assay. Format: cell-based.
In experiment [3] the test system is Klebsiella pneumoniae. Nature of the experiment: Synergistic antibacterial activity against Klebsiella pneumoniae ATCC 13833 in presence of 0.5 times MIC of colistin by microdilution broth method. Format: functional.
Experiment [4] deals with Klebsiella pneumoniae. Nature of the experiment: Potentiation of colistin-induced antibacterial activity against Klebsiella pneumoniae ATCC 13833 assessed as fold reduction in colistin MIC by microdilution broth method relative to colistin MIC. Format: functional.
Experiment [5] has as its system Klebsiella pneumoniae. As to the kind of experiment: Synergistic antibacterial activity against colistin-resistant Klebsiella pneumoniae SI-081R clinical isolate in presence of 2 ug/ml colistin by microdilution broth method (reference value: 256 ug/ml). Format: functional.
Experiment [6] concerns Pseudomonas aeruginosa. Nature of the experiment: Antibacterial activity against Pseudomonas aeruginosa ATCC 27853 assessed as bacterial growth inhibition by agar diffusion assay. Format: functional.
For experiment [7], the system named is Escherichia coli. As to the kind of experiment: Synergistic antibacterial activity against Escherichia coli CCUG in presence of 0.5 times MIC of colistin by microdilution broth method. Format: functional.
In experiment [8] the test system is Klebsiella pneumoniae. Nature of the experiment: Antibacterial activity against Klebsiella pneumoniae ATCC 13833 assessed as bacterial growth inhibition by agar diffusion assay. Format: functional. For orientation: A growth-free zone around the sample is the usual read-out of agar diffusion tests.
The subject of experiment [9] is Acinetobacter baumannii. Nature of the experiment: Potentiation of colistin-induced antibacterial activity against Acinetobacter baumannii ATCC 17978 assessed as fold reduction in colistin MIC by microdilution broth method relative to colistin MIC. Format: functional.
Experiment [10] relates to Acinetobacter baumannii. Nature of the experiment: Synergistic antibacterial activity against Acinetobacter baumannii ATCC 17978 assessed as fractional inhibitory concentration index in presence of colistin by Checkerboard assay. Format: functional.
The subject of experiment [11] is Escherichia coli. As to the kind of experiment: Antibacterial activity against Escherichia coli CCUG assessed as bacterial growth inhibition by agar diffusion assay. Format: functional.
Experiment [12] concerns Klebsiella pneumoniae. Nature of the experiment: Synergistic antibacterial activity against colistin-resistant Klebsiella pneumoniae SI-004Bo clinical isolate in presence of 2 ug/ml colistin by microdilution broth method (reference value: 64 ug/ml). Format: functional.
Experiment [13] deals with Escherichia coli. Nature of the experiment: Potentiation of colistin-induced antibacterial activity against Escherichia coli CCUG assessed as fold reduction in colistin MIC in by microdilution broth method relative to colistin MIC. Format: functional.
For experiment [14], the system named is Acinetobacter baumannii. Nature of the experiment: Antibacterial activity against Acinetobacter baumannii ATCC 17978 assessed as bacterial growth inhibition by agar diffusion assay. Format: functional.
Experiment [15] deals with Pseudomonas aeruginosa. Nature of the experiment: Potentiation of colistin-induced antibacterial activity against Pseudomonas aeruginosa ATCC 27853 assessed as fold reduction in colistin MIC by microdilution broth method relative to colistin MIC. Format: functional.
Experiment [16] relates to Pseudomonas aeruginosa. Nature of the experiment: Synergistic antibacterial activity against Pseudomonas aeruginosa ATCC 27853 assessed as fractional inhibitory concentration index in presence of colistin by Checkerboard assay. Format: functional.
The test system of experiment [17] is Pseudomonas aeruginosa. As to the kind of experiment: Synergistic antibacterial activity against Pseudomonas aeruginosa ATCC 27853 in presence of 0.5 times MIC of colistin by microdilution broth method. Format: functional.
For experiment [18], the system named is Acinetobacter baumannii. Nature of the experiment: Synergistic antibacterial activity against multidrug-resistant Acinetobacter baumannii N50 assessed as fractional inhibitory concentration index in presence of colistin by checkerboard assay. Format: functional.
Another experiment concerns Staphylococcus aureus. As to the kind of experiment: Antibacterial activity against Staphylococcus aureus ATCC 25923 assessed as bacterial growth inhibition by agar diffusion assay. Format: functional.
Experiment [19] relates to Enterobacter cloacae. Nature of the experiment: Antibacterial activity against multidrug-resistant Enterobacter cloacae Z19 clinical isolate assessed as bacterial growth inhibition by agar diffusion assay. Format: functional.
A further experiment relates to Enterococcus faecalis. Nature of the experiment: Antibacterial activity against Enterococcus faecalis ATCC 29212 assessed as bacterial growth inhibition by agar diffusion assay. Format: functional.
For another experiment, the system named is Streptococcus pyogenes. As to the kind of experiment: Antibacterial activity against Streptococcus pyogenes ATCC 12344 assessed as bacterial growth inhibition by agar diffusion assay. Format: functional.
The test system of experiment [20] is Pseudomonas aeruginosa. As to the kind of experiment: Antibacterial activity against multidrug-resistant Pseudomonas aeruginosa VR-143/97 clinical isolate assessed as bacterial growth inhibition by agar diffusion assay. Format: functional.
In the next experiment the test system is Bacillus spizizenii. As to the kind of experiment: Antibacterial activity against Bacillus subtilis ATCC 6633 assessed as bacterial growth inhibition by agar diffusion assay. Format: functional.
Experiment [21] deals with Enterobacter cloacae. Nature of the experiment: Antibacterial activity against multidrug-resistant Enterobacter cloacae VA 417/02 clinical isolate assessed as bacterial growth inhibition by agar diffusion assay. Format: functional.
Experiment [22] concerns Acinetobacter baumannii. As to the kind of experiment: Antibacterial activity against Acinetobacter baumannii AC-54/97 clinical isolate assessed as bacterial growth inhibition by agar diffusion assay. Format: functional.
Experiment [23] concerns Escherichia coli. Nature of the experiment: Synergistic antibacterial activity against Escherichia coli CCUG assessed as fractional inhibitory concentration index in presence of colistin by Checkerboard assay. Format: functional.
For experiment [24], the system named is Escherichia coli. Nature of the experiment: Antibacterial activity against multidrug-resistant Escherichia coli Z25 clinical isolate assessed as bacterial growth inhibition by agar diffusion assay. Format: functional.

For the compound `O=C(NCc1ccc2c(c1)OCO2)c1cnn(-c2ccccc2)c1-n1cccc1`, the MIC in the experiment with Acinetobacter baumannii [1] was 32 µg/mL; in the experiment with Acinetobacter baumannii [2], 32 µg/mL; with Klebsiella pneumoniae [3], 64 µg/mL; in the experiment with Klebsiella pneumoniae [5], > 64 µg/mL; in the experiment with Pseudomonas aeruginosa [6], > 512 µg/mL; with Escherichia coli [7], 64 µg/mL. Also, the MIC is > 512 µg/mL in the experiment with Klebsiella pneumoniae [8], > 512 µg/mL in the experiment on Escherichia coli [11], > 64 µg/mL in the experiment with Klebsiella pneumoniae [12] and > 512 µg/mL in the experiment on Acinetobacter baumannii [14]. Moreover, in the experiment on HeLa, the IC50 is > 60 µg/mL. In addition, the log2FC amounted to 3 with Klebsiella pneumoniae [4], 4 with Acinetobacter baumannii [9] and 3 with Escherichia coli [13]. The “fractional inhibitory concentration index (FICI)” value in the experiment with Acinetobacter baumannii [10] was determined as 0.38.

Take `CCCCCc1cc(O)cc(OCCCCCCCCCCC(=O)NCCO)c1`: the MIC in the experiment on Acinetobacter baumannii [1] is 2 µg/mL; in the experiment with Acinetobacter baumannii [2] it was 2 µg/mL; in the experiment with Klebsiella pneumoniae [3] it was 4 µg/mL; in the experiment with Klebsiella pneumoniae [5] it was > 64 µg/mL; in the experiment on Pseudomonas aeruginosa [6], > 512 µg/mL; in the experiment on Escherichia coli [7] it was 8 µg/mL. For the same compound, the MIC is > 512 µg/mL with Klebsiella pneumoniae [8]; 2 µg/mL in the experiment with Pseudomonas aeruginosa [17]; > 512 µg/mL with Escherichia coli [11]; > 64 µg/mL in the experiment on Klebsiella pneumoniae [12]; > 512 µg/mL with Acinetobacter baumannii [14]. Further, the log2FC in the experiment with Pseudomonas aeruginosa [15] amounted to 8; in the experiment with Klebsiella pneumoniae [4], 7; in the experiment with Acinetobacter baumannii [9] it was 8; with Escherichia coli [13], 6. Also, in the experiment with HeLa, the IC50 was determined as 25 µg/mL (≈ 61.3 µM). Besides, the “fractional inhibitory concentration index (FICI)” value was 0.41 in the experiment on Pseudomonas aeruginosa [16], 0.29 in the experiment with Acinetobacter baumannii [10] and 0.062 in the experiment with Acinetobacter baumannii [18].

In the case of `COc1ccc(CNC(=O)c2c(O)c3cc(-c4cccnc4)ccc3n(CCCCO)c2=O)cc1`, the MIC with Staphylococcus aureus is 4 µg/mL (≈ 8.45 µM); in the experiment on Acinetobacter baumannii [1], 16 µg/mL; in the experiment on Enterobacter cloacae [19], > 256 µg/mL; in the experiment with Enterococcus faecalis, 16 µg/mL (≈ 33.8 µM); in the experiment on Streptococcus pyogenes, 8 µg/mL (≈ 16.9 µM); in the experiment with Pseudomonas aeruginosa [20], > 256 µg/mL. Besides, the MIC is 64 µg/mL in the experiment with Klebsiella pneumoniae [3]; 256 µg/mL (≈ 541 µM) in the experiment on Pseudomonas aeruginosa [6]; 32 µg/mL in the experiment on Escherichia coli [7]; 0.12 µg/mL (≈ 0.253 µM) in the experiment on Bacillus spizizenii; 32 µg/mL (≈ 67.6 µM) with Klebsiella pneumoniae [8]; 64 µg/mL (≈ 135 µM) in the experiment on Enterobacter cloacae [21]. Further, the MIC with Acinetobacter baumannii [22] was > 256 µg/mL; in the experiment with Escherichia coli [11], 64 µg/mL (≈ 135 µM); with Acinetobacter baumannii [14], 16 µg/mL (≈ 33.8 µM); with Escherichia coli [24], > 256 µg/mL. Also, the log2FC is 3 in the experiment with Klebsiella pneumoniae [4], 5 in the experiment on Acinetobacter baumannii [9] and 4 in the experiment with Escherichia coli [13]. Moreover, in the experiment with Escherichia coli [23], the “fractional inhibitory concentration index (FICI)” value is given as 0.56.

For the compound `CCCCCc1cc(O)cc(OCCCCCCCCCCCC(=O)NCCO)c1`, the MIC is 4 µg/mL in the experiment on Acinetobacter baumannii [1]; 4 µg/mL in the experiment with Acinetobacter baumannii [2]; 8 µg/mL in the experiment on Klebsiella pneumoniae [3]; > 64 µg/mL with Klebsiella pneumoniae [5]; > 512 µg/mL in the experiment on Pseudomonas aeruginosa [6]; 8 µg/mL with Escherichia coli [7]. Also, the MIC with Klebsiella pneumoniae [8] is > 512 µg/mL; in the experiment on Pseudomonas aeruginosa [17], 4 µg/mL; in the experiment with Escherichia coli [11], > 512 µg/mL; with Klebsiella pneumoniae [12], > 64 µg/mL; in the experiment with Acinetobacter baumannii [14], > 512 µg/mL. Also, the log2FC is on record as 7 in the experiment on Pseudomonas aeruginosa [15], 6 with Klebsiella pneumoniae [4], 7 with Acinetobacter baumannii [9] and 6 in the experiment with Escherichia coli [13]. The IC50 with HeLa is 18 µg/mL (≈ 42.7 µM). Moreover, the “fractional inhibitory concentration index (FICI)” value in the experiment on Pseudomonas aeruginosa [16] was 0.41; with Acinetobacter baumannii [10], 0.31.

A word on the MIC: it is the lowest concentration that inhibits growth of the organism. As a reminder, the IC50 is the concentration that gives 50% inhibition.
